According to the supplement of paper PMC11451515:

What was measured:
Settings in all cases: 48 h
NOMO1 [1] = test: AUC of viability dose-response curve (% viability x log10 dose units); higher = less sensitive
Procedure, shortened: (§1)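 Over 48 h at 37°C, leukemia cells in 1536-well plates (500 or 1000 cells/well), adapted to each medium, received library compounds in DMSO at 11 threefold doses from 47 μM to 0.79 nM. CellTiter-Glo One luminescence, normalised per plate to DMSO and cell-free wells, was fitted by a four-parameter log-logistic function of log10 dose. The area under the curve was then integrated by trapezoidal rule, after scaling curves above full viability and removing those that failed quality control.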

SEM cells [2] = test: as above
Procedure, shortened: as §1

P12-Ichikawa [3] = test: as above
Procedure, shortened: as §1

NOMO1 [4] = test: cell viability relative to DMSO control; higher = less cytotoxic
Procedure, shortened: (§2)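 In 1536-well plates, 5 μl of leukemia cells were seeded per well: 500 cells/well for NOMO1 or SEM and 1000 cells/well for P12-Ichikawa. Each line had first been adapted for at least four passages in each medium. Library compounds in DMSO were pin-dosed at 11 threefold concentrations between 47 μM and 0.79 nM, and CellTiter-Glo One luminescence was read after 48 h at 37°C. Viability is a per-plate percentage relative to DMSO wells, with cell-free wells as background.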

SEM cells [5] = test: as above
Procedure, shortened: as §2

P12-Ichikawa [6] = test: as above
Procedure, shortened: as §2

O=C(CCc1ccc(O)cc1)c1c(O)cc(O)cc1O
AUC of viability dose-response curve
Settings | NOMO1 [1] | P12-Ichikawa [3] | SEM cells [2]
HPLM + 10% dialyzed FBS | 457 | 459 | 433
RPMI 5 mM glucose + 10% FBS | 460 | 467 | 438
RPMI 5 mM glucose + 10% dialyzed FBS | 455 | 459 | 434

cell viability [%]
Settings | NOMO1 [4] | P12-Ichikawa [6] | SEM cells [5]
HPLM + 10% dialyzed FBS, 0.000781 µM | 84.2 | 94.5 | 74
HPLM + 10% dialyzed FBS, 0.00234 µM | 95.5 | 106 | 79.7
HPLM + 10% dialyzed FBS, 0.00702 µM | 108 | 104 | 92
HPLM + 10% dialyzed FBS, 0.0211 µM | 112 | 99.5 | 95.5
HPLM + 10% dialyzed FBS, 0.0632 µM | 93.8 | 103 | 89.1
HPLM + 10% dialyzed FBS, 0.19 µM | 104 | 111 | 95.9
HPLM + 10% dialyzed FBS, 0.569 µM | 100 | 110 | 115
HPLM + 10% dialyzed FBS, 1.71 µM | 125 | 116 | 94.5
HPLM + 10% dialyzed FBS, 5.12 µM | 116 | 112 | 57
HPLM + 10% dialyzed FBS, 15.4 µM | 93 | 103 | 107
HPLM + 10% dialyzed FBS, 46.1 µM | 36.8 | 110 | 100
RPMI 5 mM glucose + 10% FBS, 0.000781 µM | 91.5 | 89.5 | 80.8
RPMI 5 mM glucose + 10% FBS, 0.00234 µM | 98.6 | 91 | 102
RPMI 5 mM glucose + 10% FBS, 0.00702 µM | 105 | 100 | 102
RPMI 5 mM glucose + 10% FBS, 0.0211 µM | 102 | 103 | 85.6
RPMI 5 mM glucose + 10% FBS, 0.0632 µM | 98 | 90.2 | 86.3
RPMI 5 mM glucose + 10% FBS, 0.19 µM | 99.5 | 101 | 97.7
RPMI 5 mM glucose + 10% FBS, 0.569 µM | 96.1 | 106 | 105
RPMI 5 mM glucose + 10% FBS, 1.71 µM | 106 | 104 | 99.4
RPMI 5 mM glucose + 10% FBS, 5.12 µM | 98.3 | 105 | 40.2
RPMI 5 mM glucose + 10% FBS, 15.4 µM | 101 | 107 | 105
RPMI 5 mM glucose + 10% FBS, 46.1 µM | 38.3 | 91.1 | 106
RPMI 5 mM glucose + 10% dialyzed FBS, 0.000781 µM | 82.4 | 81.6 | 96.5
RPMI 5 mM glucose + 10% dialyzed FBS, 0.00234 µM | 101 | 92 | 90.9
RPMI 5 mM glucose + 10% dialyzed FBS, 0.00702 µM | 94.5 | 93 | 89.7
RPMI 5 mM glucose + 10% dialyzed FBS, 0.0211 µM | 103 | 96.7 | 90
RPMI 5 mM glucose + 10% dialyzed FBS, 0.0632 µM | 98.1 | 100 | 83.6
RPMI 5 mM glucose + 10% dialyzed FBS, 0.19 µM | 87.1 | 98.7 | 105
RPMI 5 mM glucose + 10% dialyzed FBS, 0.569 µM | 98.9 | 103 | 88.1
RPMI 5 mM glucose + 10% dialyzed FBS, 1.71 µM | 103 | 94.3 | 91
RPMI 5 mM glucose + 10% dialyzed FBS, 5.12 µM | 101 | 102 | 62.3
RPMI 5 mM glucose + 10% dialyzed FBS, 15.4 µM | 106 | 90.4 | 102
RPMI 5 mM glucose + 10% dialyzed FBS, 46.1 µM | 74.7 | 99.4 | 102

O=C1NCCc2[nH]c(-c3ccncc3)cc21
AUC of viability dose-response curve
Settings | NOMO1 [1] | P12-Ichikawa [3] | SEM cells [2]
HPLM + 10% dialyzed FBS | 428 | 433 | 421
RPMI 5 mM glucose + 10% FBS | 439 | 428 | 423
RPMI 5 mM glucose + 10% dialyzed FBS | 431 | 426 | 430

SEM cells [5], HPLM + 10% dialyzed FBS
Settings | cell viability [%]
0.000781 µM | 106
0.00234 µM | 118
0.00702 µM | 119
0.0211 µM | 128
0.0632 µM | 133
0.19 µM | 140
0.569 µM | 147
1.71 µM | 149
5.12 µM | 149
15.4 µM | 41.2
46.1 µM | 8.55

N#CC(c1ccnc(NCCc2cccnc2)n1)c1nc2ccccc2s1 (centres undefined)
AUC of viability dose-response curve
Settings | NOMO1 [1] | P12-Ichikawa [3] | SEM cells [2]
HPLM + 10% dialyzed FBS | 469 | 467 | 454
RPMI 5 mM glucose + 10% FBS | 475 | 473 | 448
RPMI 5 mM glucose + 10% dialyzed FBS | 450 | 470 | 468

cell viability [%]
Settings | HPLM + 10% dialyzed FBS | RPMI 5 mM glucose + 10% FBS | RPMI 5 mM glucose + 10% dialyzed FBS
P12-Ichikawa [6], 0.000781 µM | 115 | – | 122
P12-Ichikawa [6], 0.00234 µM | 128 | – | 136
P12-Ichikawa [6], 0.00702 µM | 120 | – | 122
P12-Ichikawa [6], 0.0211 µM | 127 | – | 145
P12-Ichikawa [6], 0.0632 µM | 127 | – | 142
P12-Ichikawa [6], 0.19 µM | 134 | – | 152
P12-Ichikawa [6], 0.569 µM | 131 | – | 151
P12-Ichikawa [6], 1.71 µM | 121 | – | 148
P12-Ichikawa [6], 5.12 µM | 141 | – | 140
P12-Ichikawa [6], 15.4 µM | 141 | – | 133
P12-Ichikawa [6], 46.1 µM | 118 | – | 120
SEM cells [5], 0.000781 µM | 110 | 105 | –
SEM cells [5], 0.00234 µM | 122 | 105 | –
SEM cells [5], 0.00702 µM | 118 | 144 | –
SEM cells [5], 0.0211 µM | 117 | 125 | –
SEM cells [5], 0.0632 µM | 126 | 133 | –
SEM cells [5], 0.19 µM | 136 | 118 | –
SEM cells [5], 0.569 µM | 134 | 124 | –
SEM cells [5], 1.71 µM | 131 | 132 | –
SEM cells [5], 5.12 µM | 144 | 140 | –
SEM cells [5], 15.4 µM | 137 | 132 | –
SEM cells [5], 46.1 µM | 115 | 120 | –

CC(C)N(C[C@H]1O[C@@H](n2cnc3c(N)ncnc32)[C@H](O)[C@@H]1O)[C@H]1C[C@@H](CCc2nc3cc(C(C)(C)C)ccc3[nH]2)C1
AUC of viability dose-response curve
Settings | NOMO1 [1] | P12-Ichikawa [3] | SEM cells [2]
HPLM + 10% dialyzed FBS | 386 | 320 | 411
RPMI 5 mM glucose + 10% FBS | 450 | 450 | 333
RPMI 5 mM glucose + 10% dialyzed FBS | 429 | 383 | 399

cell viability [%]
Settings | NOMO1 [4] | P12-Ichikawa [6] | SEM cells [5]
HPLM + 10% dialyzed FBS, 0.000781 µM | 96.9 | 87.7 | 85.1
HPLM + 10% dialyzed FBS, 0.00234 µM | 98.5 | 93.6 | 87.1
HPLM + 10% dialyzed FBS, 0.00702 µM | 111 | 101 | 101
HPLM + 10% dialyzed FBS, 0.0211 µM | 109 | 98.2 | 90.5
HPLM + 10% dialyzed FBS, 0.0632 µM | 110 | 99.2 | 82
HPLM + 10% dialyzed FBS, 0.19 µM | 109 | 103 | 95.7
HPLM + 10% dialyzed FBS, 0.569 µM | 113 | 103 | 96.6
HPLM + 10% dialyzed FBS, 1.71 µM | 79.3 | 12.9 | 100
HPLM + 10% dialyzed FBS, 5.12 µM | 36.1 | 11.5 | 82
HPLM + 10% dialyzed FBS, 15.4 µM | 65.5 | 11.6 | 85.4
HPLM + 10% dialyzed FBS, 46.1 µM | 7.55 | 2.23 | 4.22
RPMI 5 mM glucose + 10% FBS, 0.000781 µM | 84 | 90 | 104
RPMI 5 mM glucose + 10% FBS, 0.00234 µM | 92.4 | 96.5 | 124
RPMI 5 mM glucose + 10% FBS, 0.00702 µM | 113 | 103 | 131
RPMI 5 mM glucose + 10% FBS, 0.0211 µM | 91.5 | 99.2 | 112
RPMI 5 mM glucose + 10% FBS, 0.0632 µM | 91.8 | 95.4 | 115
RPMI 5 mM glucose + 10% FBS, 0.19 µM | 115 | 105 | 128
RPMI 5 mM glucose + 10% FBS, 0.569 µM | 94.9 | 102 | 102
RPMI 5 mM glucose + 10% FBS, 1.71 µM | 113 | 103 | 36.3
RPMI 5 mM glucose + 10% FBS, 5.12 µM | 99.1 | 108 | 19
RPMI 5 mM glucose + 10% FBS, 15.4 µM | 93.3 | 92.7 | 21
RPMI 5 mM glucose + 10% FBS, 46.1 µM | 9 | 1.91 | 5.01
RPMI 5 mM glucose + 10% dialyzed FBS, 0.000781 µM | 74.4 | 96.2 | 86.3
RPMI 5 mM glucose + 10% dialyzed FBS, 0.00234 µM | 95.6 | 100 | 100
RPMI 5 mM glucose + 10% dialyzed FBS, 0.00702 µM | 97.2 | 103 | 105
RPMI 5 mM glucose + 10% dialyzed FBS, 0.0211 µM | 91.8 | 104 | 88.2
RPMI 5 mM glucose + 10% dialyzed FBS, 0.0632 µM | 95.3 | 96.5 | 92.8
RPMI 5 mM glucose + 10% dialyzed FBS, 0.19 µM | 103 | 97.6 | 103
RPMI 5 mM glucose + 10% dialyzed FBS, 0.569 µM | 102 | 113 | 113
RPMI 5 mM glucose + 10% dialyzed FBS, 1.71 µM | 99.9 | 99.2 | 100
RPMI 5 mM glucose + 10% dialyzed FBS, 5.12 µM | 86.6 | 31.4 | 47.6
RPMI 5 mM glucose + 10% dialyzed FBS, 15.4 µM | 96.1 | 31 | 49
RPMI 5 mM glucose + 10% dialyzed FBS, 46.1 µM | 6.04 | 1.74 | 4.49
